The target in series [1] is T1, Coagulation factor X (Homo sapiens, UniProt P00742). As to the kind of experiment: Inhibitory activity against Coagulation factor X was determined.
Another series concerns the target Prothrombin (Homo sapiens, UniProt P00734). The experiment in a line: In vitro inhibition of human thrombin.
For series [2], the target named is T1, Coagulation factor X. As to the kind of experiment: In vitro inhibition of human coagulation factor Xa.
In another series the target is Serine protease 1 (Homo sapiens, UniProt P07477). As to the kind of experiment: In vitro inhibition of human trypsin.
Chain of Serine protease 1 (P07477 whole entry): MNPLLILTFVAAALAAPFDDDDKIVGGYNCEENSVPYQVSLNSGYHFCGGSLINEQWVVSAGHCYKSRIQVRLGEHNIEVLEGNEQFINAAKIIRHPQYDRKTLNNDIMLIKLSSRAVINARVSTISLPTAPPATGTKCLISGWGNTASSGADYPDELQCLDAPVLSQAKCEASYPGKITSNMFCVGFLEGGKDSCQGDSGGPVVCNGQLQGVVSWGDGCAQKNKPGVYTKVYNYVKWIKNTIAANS
Series [3] is described as follows: Oral bioavailability in rat. Conditions: in vivo. Format: ADME, organism-based.
Series [4] has as its target Tissue-type plasminogen activator (Homo sapiens, UniProt P00750). As to the kind of experiment: Inhibitory activity against Tissue plasminogen activator.
Series [5] has as its target Vitamin K-dependent protein C (Homo sapiens, UniProt P04070). The experiment in a line: Inhibitory activity against activated protein C (APC).
In the next series the target is Plasminogen (Homo sapiens, UniProt P00747). The experiment in a line: Inhibitory activity against plasmin.
Chain of Plasminogen (P00747 97-580 limits assumed): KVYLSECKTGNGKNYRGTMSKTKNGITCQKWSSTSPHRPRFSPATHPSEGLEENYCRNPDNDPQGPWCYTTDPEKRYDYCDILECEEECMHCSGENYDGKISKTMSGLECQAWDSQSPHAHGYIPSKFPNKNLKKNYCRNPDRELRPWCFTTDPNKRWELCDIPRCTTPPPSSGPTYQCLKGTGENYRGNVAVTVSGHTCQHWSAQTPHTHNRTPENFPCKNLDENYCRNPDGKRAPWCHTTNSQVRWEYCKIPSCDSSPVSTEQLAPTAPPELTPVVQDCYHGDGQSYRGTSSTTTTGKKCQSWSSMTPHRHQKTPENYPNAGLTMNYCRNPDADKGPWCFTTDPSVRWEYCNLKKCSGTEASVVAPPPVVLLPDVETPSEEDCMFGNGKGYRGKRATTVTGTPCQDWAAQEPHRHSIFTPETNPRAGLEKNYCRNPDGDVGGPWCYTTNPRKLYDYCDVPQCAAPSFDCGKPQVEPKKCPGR
Chain of Plasminogen (P00747 581-810 limits assumed): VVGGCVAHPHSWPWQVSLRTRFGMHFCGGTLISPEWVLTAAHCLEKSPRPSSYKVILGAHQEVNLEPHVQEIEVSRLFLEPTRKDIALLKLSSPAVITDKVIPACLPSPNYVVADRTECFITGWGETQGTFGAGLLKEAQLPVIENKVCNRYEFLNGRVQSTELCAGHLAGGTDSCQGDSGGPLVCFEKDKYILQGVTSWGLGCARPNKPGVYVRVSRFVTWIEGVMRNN

The structures appear in SMILES notation. Bounds are passed on as bounds.

T1 sequence (P00742 41-179 limits assumed): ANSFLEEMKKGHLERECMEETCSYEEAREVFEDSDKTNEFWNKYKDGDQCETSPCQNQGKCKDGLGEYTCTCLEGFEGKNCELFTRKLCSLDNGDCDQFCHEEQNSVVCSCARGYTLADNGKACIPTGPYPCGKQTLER
T1 sequence (P00742 235-488 limits assumed): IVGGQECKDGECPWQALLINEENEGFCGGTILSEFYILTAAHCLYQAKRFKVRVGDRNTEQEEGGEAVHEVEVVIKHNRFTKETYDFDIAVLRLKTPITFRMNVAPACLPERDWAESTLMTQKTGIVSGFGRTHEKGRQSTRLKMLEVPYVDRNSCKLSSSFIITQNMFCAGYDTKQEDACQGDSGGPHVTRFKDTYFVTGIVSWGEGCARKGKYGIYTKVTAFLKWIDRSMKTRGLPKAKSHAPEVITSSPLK
Chain of Vitamin K-dependent protein C (P04070 43-197 limits assumed): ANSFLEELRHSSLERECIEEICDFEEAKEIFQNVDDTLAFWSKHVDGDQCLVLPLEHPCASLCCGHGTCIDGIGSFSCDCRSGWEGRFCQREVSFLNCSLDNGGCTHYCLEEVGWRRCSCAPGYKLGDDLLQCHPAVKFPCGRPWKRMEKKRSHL
Chain of Vitamin K-dependent protein C (P04070 212-461 limits assumed): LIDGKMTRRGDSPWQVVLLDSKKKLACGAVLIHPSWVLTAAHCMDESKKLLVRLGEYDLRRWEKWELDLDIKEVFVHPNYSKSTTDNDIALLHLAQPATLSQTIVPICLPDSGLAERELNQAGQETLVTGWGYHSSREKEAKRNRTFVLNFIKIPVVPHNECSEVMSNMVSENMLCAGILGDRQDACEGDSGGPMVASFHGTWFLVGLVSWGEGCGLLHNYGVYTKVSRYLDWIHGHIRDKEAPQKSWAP
Chain of Tissue-type plasminogen activator (P00750 whole entry): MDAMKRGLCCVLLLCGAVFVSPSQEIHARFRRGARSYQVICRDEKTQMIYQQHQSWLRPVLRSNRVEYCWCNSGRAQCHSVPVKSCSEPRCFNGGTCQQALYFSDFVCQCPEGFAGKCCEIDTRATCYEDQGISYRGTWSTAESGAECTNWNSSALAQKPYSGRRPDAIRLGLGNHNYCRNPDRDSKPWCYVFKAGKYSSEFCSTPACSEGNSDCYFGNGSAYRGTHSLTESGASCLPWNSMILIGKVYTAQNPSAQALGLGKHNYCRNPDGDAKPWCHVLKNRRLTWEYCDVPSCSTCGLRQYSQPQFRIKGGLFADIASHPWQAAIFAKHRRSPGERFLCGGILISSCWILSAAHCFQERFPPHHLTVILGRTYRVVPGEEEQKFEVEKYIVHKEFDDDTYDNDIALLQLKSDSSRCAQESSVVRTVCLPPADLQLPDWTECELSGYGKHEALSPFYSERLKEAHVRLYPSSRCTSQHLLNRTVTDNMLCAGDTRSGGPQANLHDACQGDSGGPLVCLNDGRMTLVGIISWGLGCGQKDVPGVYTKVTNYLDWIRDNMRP

Consider `Nc1nccc2ccc(C(=O)N3Cc4ccccc4C[C@H]3C(=O)Nc3ccc(-c4ccccc4S(N)(=O)=O)cc3)cc12`, for which the IC50 against Coagulation factor X [1] was 2.77 µM; against Prothrombin it was greater than 10 µM.

For the compound `N=C(N)c1cccc(C(=O)N2Cc3ccc(O)cc3C[C@@H]2C(=O)Nc2ccc(-c3ccccc3S(N)(=O)=O)cc2)c1`, the figures for the IC50 at Prothrombin, at Coagulation factor X [2] and against Serine protease 1 were greater than 10 µM, 1.78 µM and greater than 10 µM, respectively.

As to `Nc1[nH]nc2ccc(C(=O)N[C@@H](C(=O)Nc3ccc(-c4ccccc4S(N)(=O)=O)cc3)c3ccccc3)cc12`, the IC50 against Prothrombin is greater than 10 µM; against Coagulation factor X [2], 3.45 µM.

Consider `N=C(N)c1cccc(C(=O)N[C@H](Cc2ccccc2)C(=O)Nc2ccc(-c3ccccc3S(N)(=O)=O)cc2)c1`, for which the IC50 is greater than 10 µM at Prothrombin, 0.0313 µM against Coagulation factor X [2] and greater than 10 µM on Serine protease 1.

Take `N=C(N)c1cccc(C(=O)N[C@H](C(=O)Nc2ccc(-c3ccccc3S(N)(=O)=O)cc2)c2ccccc2)c1`: the IC50 is greater than 10 µM at Prothrombin, 0.337 µM at Coagulation factor X [2] and 5.17 µM against Serine protease 1.

Take `N=C(N)c1cccc(C(=O)N[C@@H](Cc2ccccc2)C(=O)Nc2ccc(-c3ccccc3S(N)(=O)=O)cc2)c1`: the IC50 is greater than 10 µM against Prothrombin, 0.762 µM against Coagulation factor X [2] and greater than 10 µM against Serine protease 1.

For `Nc1noc2ccc(C(=O)N[C@@H](C(=O)Nc3ccc(-c4ccccc4S(N)(=O)=O)cc3)c3ccccc3)cc12`, the IC50 against Coagulation factor X [1] and against Prothrombin was greater than 10 µM in each case.

For the compound `N=C(N)c1cccc(C(=O)N2CCC[C@H]2C(=O)Nc2ccc(-c3ccccc3S(N)(=O)=O)cc2)c1`, the IC50 against Prothrombin, on Coagulation factor X [2] and against Serine protease 1 was greater than 10 µM in each case.

In the case of `CC(C)[C@@H](NC(=O)c1cccc(C(=N)N)c1)C(=O)Nc1ccc(-c2ccccc2S(N)(=O)=O)cc1`, the IC50 is greater than 10 µM against Prothrombin, 0.0348 µM against Coagulation factor X [2] and greater than 10 µM against Serine protease 1.

With `N=C(N)c1cccc(C(=O)N[C@H](C(=O)Nc2ccc(-c3ccccc3S(N)(=O)=O)cc2)C2CCCCC2)c1`, the IC50 against Prothrombin was greater than 10 µM; against Coagulation factor X [2], 0.635 µM; at Serine protease 1 it was greater than 7.93 µM.

For the compound `Nc1[nH]nc2ccc(C(=O)N[C@H](C(=O)Nc3ccc(-c4ccccc4S(N)(=O)=O)cc3)c3ccccc3)cc12`, the IC50 at Prothrombin and at Coagulation factor X [2] was 10 µM each time.

For the compound `N=C(N)c1cccc(C(=O)NCC(=O)Nc2ccc(-c3ccccc3S(N)(=O)=O)cc2)c1`, the IC50 is greater than 10 µM against Prothrombin, 0.851 µM on Coagulation factor X [2] and greater than 10 µM against Serine protease 1.

In the case of `N=C(N)c1cccc(C(=O)N[C@@H](CC(=O)OC2CCCCC2)C(=O)Nc2ccc(-c3ccccc3S(N)(=O)=O)cc2)c1`, the IC50 was greater than 10 µM on Prothrombin, 0.055 µM at Coagulation factor X [2] and 4.81 µM against Serine protease 1.

For the compound `N=C(N)c1cccc(C(=O)N2Cc3ccccc3C[C@@H]2C(=O)Nc2ccc(-c3ccccc3S(N)(=O)=O)cc2)c1`, the IC50 against Prothrombin was greater than 10 µM; against Coagulation factor X [2], 0.0187 µM; on Serine protease 1, 4.39 µM.

`N=C(N)c1cccc(C(=O)N[C@@H](CCC(=O)OCc2ccccc2)C(=O)Nc2ccc(-c3ccccc3S(N)(=O)=O)cc2)c1`: the IC50 is greater than 10 µM on Prothrombin, 0.644 µM against Coagulation factor X [2] and 5.64 µM against Serine protease 1.

Regarding `CC(C)[C@H](NC(=O)c1cccc(C(=N)N)c1)C(=O)Nc1ccc(-c2ccccc2S(N)(=O)=O)cc1`, the IC50 is greater than 10 µM against Prothrombin, 0.676 µM against Coagulation factor X [2] and greater than 10 µM against Serine protease 1.

In the case of `N=C(N)c1cccc(C(=O)N[C@@H](CCC(=O)OC2CCCCC2)C(=O)Nc2ccc(-c3ccccc3S(N)(=O)=O)cc2)c1`, the IC50 at Prothrombin is greater than 10 µM; against Coagulation factor X [2] it was 0.842 µM; on Serine protease 1 it was greater than 10 µM.

As for `N=C(N)c1cccc(C(=O)N[C@@H](CCC(=O)O)C(=O)Nc2ccc(-c3ccccc3S(N)(=O)=O)cc2)c1`, the IC50 was greater than 10 µM against Prothrombin, 1.44 µM on Coagulation factor X [2] and greater than 10 µM against Serine protease 1.

`N=C(N)c1cccc(C(=O)N[C@@H](C(=O)Nc2ccc(-c3ccccc3S(N)(=O)=O)cc2)c2ccccc2)c1`: the bioavailability in series [3] was less than 5%. The IC50 against Prothrombin was greater than 10 µM; in series [4], greater than 180 µM; against Coagulation factor X [2] it was 0.0348 µM; in series [5] it was 6.56 µM; at Serine protease 1 it was 1.77 µM; against Plasminogen, 18.1 µM.

As to `N=C(N)c1cccc(C(=O)N2Cc3ccccc3C[C@H]2C(=O)Nc2ccc(-c3ccccc3S(N)(=O)=O)cc2)c1`, in series [3], the bioavailability is less than 5%. Also, the concentration for half-maximal inhibition (IC50) against Prothrombin was greater than 10 µM; in series [4], 180 µM; against Coagulation factor X [2] it was 0.003 µM; in series [5], 73 µM; on Serine protease 1, 2.15 µM; on Plasminogen, 77.9 µM.

For `N=C(N)c1cccc(C(=O)N2Cc3ccc(O)cc3C[C@H]2C(=O)Nc2ccc(-c3ccccc3S(N)(=O)=O)cc2)c1`, the IC50 on Prothrombin was greater than 10 µM; against Coagulation factor X [2], 0.0967 µM; at Serine protease 1 it was 0.888 µM.

For orientation: IC50 means the concentration at which inhibition is half-maximal. Low readings indicate greater potency, high ones weaker potency. As a reminder, the bioavailability is the share of a dose that reaches the circulation, judged against a reference dose that is usually intravenous. Higher therefore signals good availability.

These data come from ChEMBL document CHEMBL1134704, “Design, synthesis, and SAR of amino acid derivatives as factor Xa inhibitors” (Bioorg Med Chem Lett, 2001).
